Test results: a melting point compilation (Tetko et al.; mined from patent text by program, amines drawn as free bases though some values may be those of a salt)

| SMILES | melting point [°C] |
| --- | --- |
| COc1cc2c(c(Cl)c1Cl)C(=O)C(CCOC(C)=O)=C2 | 134 to 136 |
| CN1CCCc2ccc(NC(=O)/C=C/c3ccc(C(C)(C)C)cc3)cc21 | 200 to 202 |
| Oc1cccc2c1CCC(N(CCCF)CCc1cccs1)C2 (configuration not stated) | 105 to 109 |
| CCNc1nc(C)c(-c2ccnc(Nc3cc(OC)cc(OC)c3)n2)s1 | 235 to 237 |
| CCCCCc1cnc(-c2ccc(SC)cc2)nc1 | 52 |
| COc1ccc(N2C(=O)C(=C3CCCN3)c3ccccc32)cc1F | 169 to 171 |
| CCCOc1c(OCc2ccccc2)cc(C2CCC(c3cc(OC)c(OC)c(OC)c3)O2)cc1S(=O)(=O)CC(C)O (configuration not stated) | 103 to 110 |
| CCn1c(C(OCCO)(c2cccc(C(F)(F)F)c2)c2cccc(C(F)(F)F)c2)nc(-c2ccncc2)c1-c1ccc(Cl)cc1 | 222 to 223 |
| O=C(c1ccccc1)N1CC2CC=Cc3cccc1c32 (configuration not stated) | 89 to 91 |
| CN(C)CCN(C(=O)c1ccc([N+](=O)[O-])cc1Br)c1ccnc2cc3c(cc12)OCO3 | 111 to 112 |
| C(=C\c1cc(/C=C/c2ccc3[nH]ccc3c2)n[nH]1)/c1cccc(OCc2ccccn2)c1 | 183 to 186 |
| CCCCCCC(CCCn1c(CCC)nc2c(N)nc3ccccc3c21)=NO | 113 to 115 |
| COc1ccc(-c2nc3cc(F)ccc3s2)cc1OC(=O)N1CCOCC1 | 170 |
| O=Cc1ccc(CN2C(=O)c3ccccc3C2=O)c2ccccc12 | 190 to 192 |
| N#CCc1cccc(C#CCOc2ccc(Br)cn2)c1 | 121 to 123 |
| O=C(NNc1ccccc1)NC1(N=NC2(NC(=O)NNc3ccccc3)CCCCC2)CCCCC1 | 148 to 151 |
| O=S(=O)(c1ccc(Cl)cc1)C(CCc1ccccc1)c1cc(F)ccc1F (configuration not stated) | 111 to 113 |
| O=C(O)CNC(=O)c1c(O)n(C2CCCC2)c(=O)n(C2CCCCC2)c1=O | 222 to 224 |
| COC(=O)CCCCN(CCc1c[nH]c2ccccc12)CC(C)C | 103 to 104 |
| O=C(NCc1ccc(Cl)c(C(F)(F)F)c1)Nc1cccc2[nH]ccc12 | 197 |

| SMILES | melting point [°C] |
| --- | --- |
| O=C1Nc2cccc(-c3cccc(NC(=O)c4ccc(F)cc4)c3)c2/C1=C/c1ccc[nH]1 | 130 to 131 |
| CCNCC(=O)Nc1ccc2c(c1)C(=O)c1cc(NC(=O)CNCC)ccc1C2=O | 145 |
| O=C(O)c1cc(-n2c(-c3ccccc3)cc3c2CCc2ccccc2-3)ccc1O | 223 to 225 |
| COc1ccc(CNC(N)=S)cc1OCc1ccccc1 | 179 to 181 |
| O=C1OC(=O)c2c3cc(Cl)ccc3cc3cccc1c23 | 325 to 327 |
| O=[N+]([O-])c1cc(-c2csc(-c3cccnc3)n2)cc(O)c1O | 279 to 281 |
| CC(C)(C)Sc1c(C#N)nn(-c2c(Cl)cc(C(F)(F)F)cc2Cl)c1N | 196 to 198 |
| C=Cc1cn(S(=O)(=O)c2ccc(C)cc2)c2ccc(C#N)cc12 | 134 to 135 |
| O=c1c2ccccc2ccn1CCC#Cc1ccccn1 | 85 to 90 |
| CC(=O)On1c(C)csc1=S | 100 to 101 |
| Cn1c(=O)c(-c2ccccc2Cl)cc2cnc(N[C@H]3CC[C@H](NS(C)(=O)=O)CC3)nc21 | 261 |
| COc1ccc2c(c1)c(CC(=O)OC(C)(C)C)c(C)n2C(=O)c1ccc(Cl)cc1 | 103 to 104 |
| Cc1cc(-c2ccc(-c3c(Cc4ccccc4)oc4ccccc34)cc2)cc(C)c1OS(=O)(=O)c1ccc(C(=O)O)c(O)c1 | 165 to 167 |
| CC(C)n1nc(-c2sc(N(C)C)nc2-c2ccccc2)ccc1=O | 158 to 160 |
| CC(C)Oc1ccc(SCCSc2ccc(OC(C)C)cc2)cc1 | 115 to 116 |
| CCN(CC)c1nc(NC(N)=NOC)nc(OC)n1 | 112 |
| OCCOCC=C(c1ccc(Cl)cc1)c1ccc(Cl)cc1 | 93 to 95 |
| NC(=O)c1cnc2ccc(Cl)cc2c1Cl | 209 |
| CCCCNc1c(C(=O)OCC)c(C)nc(N)c1[N+](=O)[O-] | 98 to 99 |
| CC(=O)Cn1c(=O)n(C2CCN(CCCC(c3ccc(F)cc3)c3ccc(F)cc3)CC2)c2ccc(Cl)cc21 | 175 |

| SMILES | melting point [°C] |
| --- | --- |
| CCOC(=O)c1cnc2c(c(C)nc3cc(C)nn32)c1N1CCCCC1 | 161 to 163 |
| NC(=O)N1CC(Oc2ccc(C(F)(F)F)cc2)C1 | 176 to 178 |
| Cc1cc2ccc(CCCCCN3CCN(c4cccc(Cl)c4Cl)CC3)nc2[nH]c1=O | 157 to 158 |
| Cn1c(C(F)(F)F)cc(=O)n(-c2ccc(Cl)cc2O)c1=O | 198 to 202 |
| NC(=O)c1cn(C(CO)COc2ccccc2)cn1 (configuration not stated) | 148 to 150 |
| NOc1ccc2c(c1)CCCC2=O | 55.5 to 57 |
| Cc1ccc(C=C(F)C(=O)NC(Cc2ccccc2)C(=O)O)cc1 (configuration not stated) | 163 to 164 |
| COC(=O)c1cc(-c2ccc(C)c(F)c2)n[nH]c1=O | 206 to 207 |
| CC(NC(=O)C=Cc1ccc(Cl)cc1)c1ccc(NS(C)(=O)=O)c(F)c1 (configuration not stated) | 170 to 172 |
| CC(=O)N(CC(=O)O)c1ccccc1C(=O)O | 206 |
| O=C1CCCCCCCCCCCCCCCCCCCCCCC1O (configuration not stated) | 39 to 40 |
| CON(C(=Cc1ccccc1)C(N)=O)c1ccccc1 | 69 |
| CCc1nnc(-c2ccccc2)c(=O)n1N | 164 |
| CC(C)(N)CCOc1ccc(C2=NNC(=O)CC2)cc1Cl | 152 to 156 |
| COc1cccc(COc2cncc(Cl)n2)c1 | 111 to 113 |
| C#CCOc1cc(C(=O)O)cc(Cl)c1OCC#C | 158 to 159 |
| O=C(O)Cc1ccc(-c2ccc(F)cc2F)c(Cl)c1 | 114 to 116 |
| O=C(O)c1cnn2c(C(F)F)cc(-c3ccc(Cl)cc3)nc12 | 232 |
| O=C1SCC(O)=C1Cc1ccc(Br)cc1 | 201 to 202 |

Continued, values first:

| melting point [°C] | SMILES |
| --- | --- |
| 76 to 78 | Cc1cc(C)c2c(c1)C=C(/C=C/C=O)CO2 |
| 260 to 263 | COc1cc2c(cc1S(N)(=O)=O)CCN(C(C)=O)CC2 |
| 186 | CC(=O)Nc1c(C)c(C)c2c(c1N(C)C)CC(C)(C)O2 |
| 126 to 127 | O=C(O)Cc1ccc(-c2ccccc2F)c(F)c1 |
| 40 to 42 | CCOC(=O)N1CCc2onc(Cl)c2C1 |
| 162 | CC(=O)c1ccc(Nc2c(C(=O)NOCCO)ccc(F)c2F)c(Cl)c1 |
| 220 to 222 | Cc1c(Nc2ccc(Cl)cc2C(=O)O)cccc1C(F)(F)F |
| 122 to 123 | COc1cc(OC)cc(-c2ncoc2-c2cc(N)c(OC)cc2O)c1 |
| 120 to 122 | CCNC(=S)N1CCN(c2cncc(OC)n2)CC1 |
| 130 to 131 | CCC1(CC)OC(c2ccc(S(C)(=O)=O)cc2)=C(Br)C1=O |
| 125 to 127 | Cn1cc2snnc2n1 |
| 163 to 166 | CN1CCNCC(NC(=O)c2n[nH]c3ccccc23)C1 (configuration not stated) |
| 178 to 180 | CCc1cc(S)n2nccc2n1 |
| 128 to 130 | CCOCCOC(=O)c1cc2cc(Br)ccc2nn1 |
| 86 to 87 | O=[N+]([O-])c1cc(F)ccc1NC1CCN(Cc2ccccc2)CC1 |
| 151 to 154 | CCN(c1nc(C)cc(C)n1)c1ccc(CC=NOC)cc1S(C)(=O)=O |
| 295 to 298 | CN(C)c1nc2n(n1)CC1=CSC(=O)C1=N2 |
| 138 to 139 | O=C(CCCN1CCC(C(O)(c2ccccc2)c2ccccc2)CC1)c1ccc(N2CCCCC2)cc1 |
| 141 to 143 | CCNC(=O)c1nc(-c2ccc(C)c(C)c2)n(-c2cc(Cl)ccc2C)c1-c1cccc(Cl)c1 |
| 179 to 180 | COc1ccc(S(=O)(=O)Nc2ccccc2NC(=O)c2cccnc2)cc1 |
| 160 to 161 | Cc1nnc(-c2ccc3ncn(-c4ccc(OC(F)(F)F)cc4)c3c2)o1 |
| 123 to 126 | O=C(Nc1cc(-c2cccc(C(F)(F)F)c2)no1)c1c(F)cccc1F |

| melting point [°C] | SMILES |
| --- | --- |
| 266 to 267 | CCc1cn(C2CC(O)C(CNC(=O)Cc3ccccc3NC(C)=O)O2)c(=O)[nH]c1=O (configuration not stated) |
| 213 | O=c1[nH]c2ccccc2c(=O)n1CCN1CCC(C(O)c2ccc(F)cc2)CC1 (configuration not stated) |
| 193 to 195 | CCN(CC)c1ccc2cc([N+](=O)[O-])c(=O)oc2c1 |
| 255 to 257 | COc1cc2nc(N)nc(-c3cc(-c4ccccc4)cc(-c4ccc(O)cc4)c3)c2cc1OC |
| 208 to 209 | CCc1nc2c(N)nc3cc(OCc4ccccc4)ccc3c2s1 |
| 179 | Cn1cncc1C(c1ccc(Cl)cc1)c1ccc(N)c(C(=O)c2cccc(Cl)c2)c1 (configuration not stated) |
| 246 to 247 | CCOC(=O)c1cnn2c1c(O)nc1c(C)nn(C)c12 |
| 258 to 259 | COc1cc2c(Nc3ccc(C)c(O)c3)ncnc2cc1OCc1cccnc1 |
| 175 to 178 | COC(=O)C=Cc1cccc2c3c(n(C)c12)CCN(Cc1nc[nH]c1C)C3=O |
| 198 to 200 | Cc1ccc(C(O)CN2c3nc(-c4ccncc4)cc(=O)n3CCC2c2ccccc2)cc1 (configuration not stated) |
| 212 to 221 | CC(C)(C)OC(=O)N1CCn2c(c(C(N)=O)c(C#N)c2C2CCOCC2)C1 |
| 195 to 201 | CC(=O)Nc1cc(C(C)(C)C)nn1C(CCN1C(=O)c2ccccc2C1=O)=NOS(=O)(=O)c1ccc(C)cc1 |
| 152 to 154 | CC(C)CN1C(=O)CCC(c2ccccc2Cl)c2cc(Cl)ccc21 (configuration not stated) |
| 178 to 185 | CN1CCN(c2ccc(-c3cnc4[nH]cc(C(=O)N[C@@H](C(=O)N5CC(C#N)C5)C5CC5)c4n3)cc2)CC1 |
| 172 to 178 | Cc1ccc(OCC(CO)NC(C)(C)C)c(-c2ccc(NN)nn2)c1 (configuration not stated) |
| > 300 | O=C(O)c1ccc(-c2nnc3n2-c2cccnc2Nc2ccccc2-3)cc1 |
| 143 to 147 | CS(=O)(=O)c1ccc(-c2sc(-c3ccccc3Cl)nc2-c2ccccc2Cl)cc1 |
| 288 to 290 | NC(=O)NNc1c(Cl)cccc1Cl |
| > 310 | O=c1[nH]c(Cl)nc2c1ncn2COCCO |
| 209 to 211 | COc1ccccc1NS(=O)(=O)c1ccc(N2CCNC2=O)cc1 |
| 161 to 170 | O=C1c2c(cc(O)c(Cl)c2Cl)CC1(c1ccccc1)C1CCCC1 (configuration not stated) |
